Experimental data reported in patent US4853467A, “Nitrogen containing derivatives of epipodophyllotoxin glucosides” (Bristol-Myers Company, priority 1987, dated 1989).
Values after ≈ are worked out from the molar mass of the structure shown.

Legend:
HCT/VM34 = experiment: In vitro cytotoxicity assay, HCT/VM34 teniposide-resistant human colon tumor; assay type: cell-based; details: HCT/VM34, resistant to teniposide, two values per compound, four-fold serial dilution; for IC50: Homo sapiens
Protocol: (§1) The in vitro cytotoxicity assay involved growing various mammalian tumor cells, including human tumor cells, on microtitre plates employing established tissue culture methods. The concentration of each compound required to inhibit cell growth by 50% (IC50) was then determined by a four-fold serial dilution technique. The validity of the method has been supported by a report published in the "Proceedings of the American Association for Cancer Research", 1984, 25:1891 (Abst. No. 328). Tumor cells of the following types were employed for each compound tested: B16-F10 murine melanoma; Moser human colon; SW900 human lung and three human colon tumor cell lines namely HCT-116, HCT-VM, and HCT-VP, the latter two being resistant to teniposide (VM) and etoposide (VP), respectively. IC50 values less than 500 μg/ml are a positive indicator of antitumor activity. Table II presents IC50 values of various compounds of the present invention against the aforementioned cell lines.

P388 murine leukemia = experiment: P388 Leukemia, antitumor activity against murine P388 leukemia; assay type: in vivo, murine (female CDF1 mice); details: i.p. on days 5 and 8; 10^6 P388 cells i.p.; maximum effect over doses; >=125 considered significant; etoposide values in parentheses are positive control in same experiment
Protocol: Female CDF1 mice were implanted intraperitoneally with a tumor inoculum of 10^6 ascites cells of P388 murine leukemia and treated with various doses of a test compound; four mice were used for each dose level and ten were used as saline-treated control. The compounds were administered by intraperitoneal injection on days 5 and 8 (day 1 being the day of tumor implantation). Antitumor activity was expressed as % T/C which is the ratio of the median survival time (MST) of drug-treated group to the MST of saline-treated control group. A compound showing a % T/C value of 125 or greater is generally considered to have significant antitumor activity in the P388 test. The experiment lasted 31 days at the end of which time the number of survivors was noted. Table I presents the results of the above-described evaluation; only the maximum % T/C and the dose showing the maximum effect are reported.

Moser human colon = experiment: In vitro cytotoxicity assay, Moser human colon; assay type: cell-based; details: two values per compound, four-fold serial dilution; for IC50: Homo sapiens
Protocol: as §1

HCT/VP35 = experiment: In vitro cytotoxicity assay, HCT/VP35 etoposide-resistant human colon tumor; assay type: cell-based; details: two values per compound, four-fold serial dilution; for In vitro cytotoxicity IC50, HCT/VP35: HCT/VP35, resistant to etoposide; for IC50: Homo sapiens, HCT/VP35, HCT/VP35, resistant to etoposide
Protocol: as §1

SW900 human lung = experiment: In vitro cytotoxicity assay, SW900 human lung; assay type: cell-based; details: two values per compound, four-fold serial dilution; for IC50: Homo sapiens, SW900, SW900 human lung; for In vitro cytotoxicity IC50, SW900: SW900 human lung
Protocol: as §1

B16-F10 murine melanoma = experiment: In vitro cytotoxicity assay, B16-F10 murine melanoma; assay type: cell-based; details: two values per compound, four-fold serial dilution; for In vitro cytotoxicity IC50, B-16-F10: B16-F10 murine melanoma; for IC50: Mus musculus, B16-F10, B16-F10 murine melanoma, read-out: In vitro cytotoxicity IC50, B-16-F10
Protocol: as §1

HCT-116 = experiment: In vitro cytotoxicity assay, HCT-116 human colon tumor; assay type: cell-based; details: two values per compound, four-fold serial dilution; for In vitro cytotoxicity IC50, HCT-116: HCT-116 human colon; for IC50: Homo sapiens, HCT-116, HCT-116 human colon
Protocol: as §1

[1] = test system: small cell lung cancer, non-lymphocytic leukemia, and non-seminomatous testicular cancer; details: AMA Drug Evaluation, 5th Edition, 1983; cited from earlier work

Compound | In vitro cytotoxicity IC50, HCT/VM34 (HCT/VM34) | IC50 (HCT/VM34) | Max % T/C (ratio of median survival time of drug-treated group to saline-treated control group) (P388 murine leukemia) | IC50 (Moser human colon) | In vitro cytotoxicity IC50, MOSER (Moser human colon) | In vitro cytotoxicity IC50, HCT/VP35 (HCT/VP35) | IC50 (HCT/VP35) | IC50 (SW900 human lung) | In vitro cytotoxicity IC50, B-16-F10 (B16-F10 murine melanoma) | IC50 (B16-F10 murine melanoma) | In vitro cytotoxicity IC50, HCT-116 (HCT-116) | IC50 (HCT-116) | In vitro cytotoxicity IC50, SW900 (SW900 human lung) | activity in the treatment of cancers [1]
CNc1cc([C@@H]2c3cc4c(cc3[C@@H](O[C@@H]3O[C@@H]5CO[C@@H](C)O[C@H]5[C@H](O)[C@H]3O)[C@H]3COC(=O)[C@H]23)OCO4)cc(OC)c1O [Example 4, 3'-Desmethoxy-3'-methylamine etoposide] | 33 µg/mL | 23 µg/mL (≈ 39.1 µM) | 170% | 56 µg/mL (≈ 95.3 µM) | 49 µg/mL | 47 µg/mL | 40 µg/mL (≈ 68.1 µM) | 63 µg/mL (≈ 107 µM) | 17.9 µg/mL | 13.9 µg/mL (≈ 23.7 µM) | 15.7 µg/mL | 16.2 µg/mL (≈ 27.6 µM) |  | 
COc1cc([C@@H]2c3cc4c(cc3[C@@H](O[C@@H]3O[C@@H]5CO[C@@H](C)O[C@H]5[C@H](O)[C@H]3O)[C@H]3COC(=O)[C@H]23)OCO4)cc(NC(=O)NCc2ccccc2)c1O [Example 11, 3'-Desmethoxy-3'-([[phenylmethyl)amino]carbonyl]amino etoposide] | 26 µg/mL | 24 µg/mL (≈ 34 µM) | 110% | 89 µg/mL (≈ 126 µM) | 93 µg/mL | 31 µg/mL | 30 µg/mL (≈ 42.5 µM) | 74 µg/mL (≈ 105 µM) | 40 µg/mL | 44 µg/mL (≈ 62.3 µM) | 98 µg/mL | 58 µg/mL (≈ 82.1 µM) | 84 µg/mL | 
COc1cc([C@@H]2c3cc4c(cc3[C@@H](O[C@@H]3O[C@@H]5CO[C@@H](c6cccs6)O[C@H]5[C@H](O)[C@H]3O)[C@H]3COC(=O)[C@H]23)OCO4)cc(OC)c1O [teniposide] |  |  |  |  |  |  |  |  |  |  |  |  |  | active in the treatment of a variety of cancers including small cell lung cancer, non-lymphocytic leukemia, and non-seminomatous testicular cancer
C[C@@H]1OC[C@H]2O[C@@H](O[C@@H]3c4cc5c(cc4[C@@H](C4=CC(=O)C(=O)C(NC(=O)NCCCl)=C4)[C@H]4C(=O)OC[C@@H]43)OCO5)[C@H](O)[C@@H](O)[C@@H]2O1 [Example 29, 5'-Desmethoxy-5'-[[(2-chloroethyl)amino]carbonyl]amino etoposide 3',4'-ortho-quinone] | 53 µg/mL | 55 µg/mL (≈ 83 µM) | 135% | 71 µg/mL (≈ 107 µM) | 77 µg/mL | 79 µg/mL | 77 µg/mL (≈ 116 µM) | > 188 µg/mL | 38 µg/mL | 39 µg/mL (≈ 58.8 µM) | 46 µg/mL | 53 µg/mL (≈ 79.9 µM) |  | 
COc1cc([C@@H]2c3cc4c(cc3[C@@H](O[C@@H]3O[C@@H]5CO[C@@H](C)O[C@H]5[C@H](O)[C@H]3O)[C@H]3COC(=O)[C@H]23)OCO4)cc(NCN2C(=O)CCC2=O)c1O [Example 13, 3'-Desmethoxy-3'-[(N-succinimido)methyl]amino etoposide] | 3.9 µg/mL | 2.7 µg/mL (≈ 3.94 µM) | 230% | 12.3 µg/mL (≈ 18 µM) | 12.1 µg/mL | 3.3 µg/mL | 3.4 µg/mL (≈ 4.97 µM) | 11 µg/mL (≈ 16.1 µM) | 8.7 µg/mL | 5.5 µg/mL (≈ 8.03 µM) | 4.1 µg/mL | 3.6 µg/mL (≈ 5.26 µM) | 8.6 µg/mL | 
COc1cc([C@@H]2c3cc4c(cc3[C@@H](O[C@@H]3O[C@@H]5CO[C@@H](C)O[C@H]5[C@H](O)[C@H]3O)[C@H]3COC(=O)[C@H]23)OCO4)cc(N=Cc2cccc([N+](=O)[O-])c2)c1O [Example 22, 3'-Desmethoxy-3'-[[(3-nitro)phenyl]methylene]amino etoposide] | 16.2 µg/mL | 21 µg/mL (≈ 29.7 µM) | 235% | > 250 µg/mL |  | 43 µg/mL | 36 µg/mL (≈ 50.9 µM) | > 250 µg/mL | 14.1 µg/mL | 10.9 µg/mL (≈ 15.4 µM) | 13.3 µg/mL | 17 µg/mL (≈ 24.1 µM) |  | 
COc1cc([C@@H]2c3cc4c(cc3[C@@H](O[C@@H]3O[C@@H]5CO[C@@H](C)O[C@H]5[C@H](O)[C@H]3O)[C@H]3COC(=O)[C@H]23)OCO4)cc(N=Cc2ccsc2)c1O [Example 17, 3'-Desmethyoxy-3'-[(3-thienyl)methylene]amino etoposide] | 24 µg/mL | 23 µg/mL (≈ 34.4 µM) | 195% | 45 µg/mL (≈ 67.4 µM) |  | 44 µg/mL | 31 µg/mL (≈ 46.4 µM) | 22 µg/mL (≈ 32.9 µM) | 8.4 µg/mL | 6.7 µg/mL (≈ 10 µM) | 10.1 µg/mL | 12.3 µg/mL (≈ 18.4 µM) | 44 µg/mL | 
COc1cc([C@@H]2c3cc4c(cc3[C@@H](O[C@@H]3O[C@@H]5CO[C@@H](C)O[C@H]5[C@H](O)[C@H]3O)[C@H]3COC(=O)[C@H]23)OCO4)cc(OC)c1O [etoposide] |  |  |  |  |  |  |  |  |  |  |  |  |  | active in the treatment of a variety of cancers including small cell lung cancer, non-lymphocytic leukemia, and non-seminomatous testicular cancer
